Results from patent US20200017771A1, “MEANS AND METHODS FOR LIGNIN PYROLYSIS” (UNIVERSITAET DES SAARLANDES, priority 2017, published 2020).
Where two headings read alike, the source gives them in different places.

Legend:
[1] = test system: catechol dioxygenase (CatA); experiment: Substrate specificity of catechol dioxygenase in cell extract; assay type: biochemical, Amycolatopsis species ATCC 39116; details: for Specific activity: 20 μM substrate, MA formation at 260 nm
Experimental: The cells were harvested by centrifugation, washed in 60 mM Tris-HCl buffer (pH 8.2), and disrupted in pre-packed lysis tubes (0.1 mm silica spheres, Lysing Matrix B, MP Biomedicals, Heidelberg, Germany), using three intervals of disruption in a ribolyzer (Precellys-24, Peq Lab, Hannover, Germany, 3×30 s, 6 m s^−1) with […] on ice in between. Removal of cell debris and protein quantification was performed as previously described (Becker et al., 2009. Appl. Environ. Microbiol. 75, 7866-9). […] The reaction was monitored on-line via the change in absorbance at 260 nm, reflecting the accumulation of MA (c=16,800 M^−1 cm^−1) (Jimenez et al., 2014. Microbiol. 16, 1767-78). […] Controls without cell extract and without substrate were included.
Subsequently, GC-MS analysis of pure MA and of lyophilized culture supernatant from a culture on o-cresol was conducted. […] It was now interesting to see, how this product was actually derived.

[2] = target: catechol-1,2-dioxygenase (CatA) (Corynebacterium glutamicum, UniProt Q8NN11); experiment: Catechol-1,2-dioxygenase (CatA) activity and kinetics in crude cell extracts; assay type: biochemical
Experimental: Crude cell extracts were prepared from exponentially growing cells by mechanical cell disruption. Cell harvest was carried out as previously described (Buschke et al., 2011. Biotechnol. J. 6, 306-17). Aliquots of 1 mL cell suspension were transferred into FastPrep-24 vials (MP Biomedicals, Illkirch-Graffenstaden, France), containing silica beads (Ø 0.1 mm). Cell disruption was carried out in 2×30 sec cycles at 5,000 rpm (Precellys-24, Peqlab, Hannover, Germany), including a 5 minute cooling pause on ice. The extract was also chilled on ice after the disruption. Removal of cell debris and protein quantification was performed as previously described (Becker et al., 2009. Appl. Environ. Microbiol. 75, 7866-9). […] The formation of MA (c=[…]) was monitored via the change in absorbance at 260 nm (Guzik et al., 2013. Int. J. Gen. Mol. Microbiol. 103, 1297-1307). […] The kinetic parameters of the enzyme were obtained by fitting the experimental data to the Michaelis-Menten type kinetic equation (OriginLab, Northhampton, Mass., USA). The protein content in the crude cell extract was quantified, using bovine serum albumin as standard (Pierce BCA Protein Assay Kit, Thermo Fisher Scientific).

[3] = test system: Corynebacterium glutamicum LIMA-1; assay type: cell-based; details: glucose as growth substrate; 24 hours
Experimental: C. glutamicum was grown at 1 mL-scale in a micro bioreactor (BioLector I, m2plabs, Baesweiler, Germany), using 48-well flower plates. […] All cultures were conducted as biological triplicate.
A set of growth experiments was conducted to study potential inhibitory effects of the compounds involved on growth of the producing strains.

[4] = test system: Amycolatopsis sp. ATCC 39116; experiment: Utilization of aromatics as sole source of carbon (growth, OD600); assay type: cell-based; details: 2 mM substrate as sole source of carbon in mineral salt medium; OD600 after 40 hours
Experimental: For genetic engineering work, E. coli strains were grown in liquid Luria-Bertani (LB) medium or on solid LB medium, which additionally contained 20 g L^−1 agar (Becton Dickinson, Heidelberg, Germany). For conjugation, A. species ATCC 39116 was grown in liquid GYM medium, containing per liter: 4 g glucose, 4 g yeast extract (Becton Dickinson), and 10 g malt extract (Becton Dickinson). For sporulation and for cloning purposes, solid GYM medium, additionally containing 20 g L^−1 agar (Becton Dickinson), was used. For the pre-culture and the main culture in growth and production studies, a mineral medium (pH 7.2) was used, which contained per liter: 4.5 g Na2HPO4*7H2O, 3.0 g (NH4)2SO4, 1.0 g KH2PO4, 200 mg NaCl, 200 mg MgSO4.7H2O, 50 mg CaCl2.2H2O, 2 mg ZnSO4.7H2O, 1.2 mg MnCl2.4H2O, 0.4 mg CoCl2.6H2O, 0.2 mg NaMoO4.2H2O, 0.2 mg CuSO4.5H2O. […] For direct MA production from pre-treated lignin, appropriate amounts of the obtained hydrolysate (see below) were added. For plasmid maintenance, kanamycin (50 μg mL^−1) or apramycin (50 μg mL^−1) were added, respectively, when needed. In addition, 5-Bromo-4-chloro-1H-indol-3-yl β-D-gluco-pyranosiduronic acid (X-Gluc) was added to selection agar plates (40 μg mL^−1) for blue white screening.
(§1) Amycolatopsis was cultivated in baffled shake flasks, filled to 10% with liquid medium. Single colonies from agar plates, incubated for 24 h at 37° C., were used as inoculum for the first pre-culture. From there, cells were harvested during the exponential growth by centrifugation (5 min, 8800 xg, and 37° C.), and used afterwards as inoculum for the main culture. All shake flask cultivations were conducted in triplicate at 37° C. and 230 rpm on an orbital shaker (Multitron, Infors AG, Bottmingen, Switzerland).
The wildtype was cultivated in minimal medium on a range of aromatics, reflecting a spectrum of potential lignin-derivable raw materials.

[5] = test system: Corynebacterium glutamicum LIMA-1; experiment: Kinetics and stoichiometry of MA production from aromatics, batch shake flask, LIMA-1; assay type: cell-based
Experimental: (§2) C. glutamicum was grown in baffled shake flasks with 10% filling volume at 30° C. and 230 rpm on an orbital shaker (Multitron, Infors AG, Bottmingen, Switzerland, 5 cm shaking diameter). The cultivation procedure involved one pre-culture in complex medium (37 g L^−1 BHI) followed by another pre-cultivation and then by the main cultivation, both in minimal medium (Kind et al., 2013. Metab. Eng. 15, 184-95.), which contained the following salts and vitamins per liter: NaCl, 0.055 g CaCl2.H2O, 0.2 g MgSO4.7H2O, 15 g (NH4)2SO4, 24.98 g K2HPO4, 7.7 g KH2PO4, 20 mg FeSO4.7 H2O, 0.5 mg biotin, 1 mg thiamine.HCl, 30 mg 3,4-dihydroxybenzoic acid and 10 mL of a 100× trace element solution (Vallino and Stephanopoulos., 1993. Biotechnol. Bioeng. 41, 633-646). […] The different medium ingredients were combined at room temperature freshly before use. The pH was kept constant at 7.0±0.2 by manual addition of 2 M NaOH. All cultures were conducted as biological triplicate.
(§3) A diode array detector was used for detection of MA (260 nm) and the aromatics (210 nm). The quantification of glucose was carried out by isocratic HPLC (Agilent 1260 Infinity Series, Waldbronn, Germany). The separation was conducted on an Aminex HPX-87H column (300×7.8 mm; Bio-Rad, Munich, Germany) at 55° C. As mobile phase, 3.5 mM H2SO4 was used at a flow rate of 0.8 mL min^−1. The refraction index was used for detection. The concentration of cell dry mass (CDM) was calculated from the measured optical density (OD660) using a correlation factor of CDM (g/L)=0.32×OD660 (Rohles et al., 2016. Microb. Cell Fact. 15, 154). The exact monitoring of the cell concentration during the intracellular metabolite sampling and the above correlation allowed to relate the obtained metabolite levels to the CDM (μmol gCDM^−1). The correlation between the cytoplasmic volume and the CDM (1.95 mL gCDM^−1) was used to express intracellular concentrations in mM (Gutmann et al., 1992. Biochim. Biophys. Acta. 1112, 115-23).

[6] = test system: Corynebacterium glutamicum LIMA-2; experiment: Kinetics and stoichiometry of MA production from catechol, batch shake flask, LIMA-2; assay type: cell-based; details: only 10 mM catechol
Experimental: as §2, §3

[7] = test system: Amycolatopsis sp. ATCC 39116; experiment: Growth of wildtype on guaiacol as sole source of carbon; assay type: cell-based
Experimental: as §1
The cell concentration was determined in duplicate as optical density at 600 nm (OD600). The cell dry mass (CDM) was determined gravimetrically in triplicate. In short, 20 mL culture broth was filtered (Whatman cellulose filter, Grade 3, GE-Healthcare Life Sciences, Little Chalfont, UK), washed three times, and dried to constant weight (HB43-S, Mettler-Toledo, Columbus, Ohio, UA). The correlation factor was CDM [g L^−1]=0.45×OD600.
The capability to use guaiacol was found most relevant, given the huge importance of the aromatic as the dominant building block of softwood lignin, and was therefore studied now in more detail. The wildtype was found robust and tolerated elevated levels of guaiacol. Concentrations up 25 mM were utilized (FIG. 25). […] On a quantitative basis, MA reached a level of 0.3 mM, which represented about 5% of the initially added guaiacol. […]

[8] = LIMA-1, initial 20 mM benzoate, 10 mM catechol, 5 mM phenol, glucose added
[9] = column LIMA-1, 10 mM catechol plus 2 mM benzoate as inducer

catechol-1,2-dioxygenase (CatA), sequence (Q8NN11 entry or part of it): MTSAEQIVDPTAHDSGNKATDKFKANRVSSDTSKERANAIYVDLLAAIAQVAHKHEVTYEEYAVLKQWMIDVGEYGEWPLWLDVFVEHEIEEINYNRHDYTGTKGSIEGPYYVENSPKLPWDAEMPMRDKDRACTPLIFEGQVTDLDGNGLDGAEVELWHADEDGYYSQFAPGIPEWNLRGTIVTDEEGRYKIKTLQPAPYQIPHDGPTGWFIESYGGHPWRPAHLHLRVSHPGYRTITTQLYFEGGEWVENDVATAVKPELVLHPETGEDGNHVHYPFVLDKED

Q: How did the Specific activity [1] turn out when Cc1cccc(O)c1O [3-Methyl catechol] was run?
A: 470 ± 9 mU mg^−1

Q: And the “activity relative to that found for catechol” value ([1]; catechol replaced by equimolar substrate)?
A: about 70%

Q: For Cc1ccc(O)c(O)c1 [4-Methyl catechol], which “accepted as substrate by the enzyme” value [1] is on record?
A: accepted

Q: And the Specific activity [1]?
A: 380 ± 5 mU mg^−1

Q: Which “CatA activity of cells cultivated on the aromatic” value ([2]; LIMA-1 crude extract) does the source give for O=C(O)c1ccccc1 [Benzoic acid] here?
A: 490 mU mg^−1

Q: What about the “fold higher CatA activity versus culture only on glucose” value ([2]; LIMA-1 crude extract) of the same compound?
A: 16 fold

Q: What about the “level up to which the mutant grew (highest concentrations tested)” value [3] of the same compound?
A: ≤ 80 mM

Q: And the Growth [4]?
A: +++ (OD > 1)

Q: What about the “YMA/Aro, MA yield” value [5] of the same compound?
A: 1.00 ± 0.02 mol mol^−1

Q: And the “YX/Glc, biomass yield” value [5]?
A: 0.46 ± 0.01 g/g

Q: What about the “qGlc, specific glucose uptake rate” value [5] of the same compound?
A: 0.5 ± 0.0 mmol/g/h

Q: And the “qMA, specific MA production rate” value [5]?
A: 3.3 ± 0.1 mmol/g/h

Q: For Oc1ccccc1O [Catechol], which Km ([2]; read-out: KM-value for catechol, crude extract of benzoate-grown cells, Michaelis-Menten fit) is on record?
A: 2.3 µM

Q: What about the Specific activity [1] of the same compound?
A: 640 ± 19 mU mg^−1

Q: And the Specific activity ([1]; listed as catechol)?
A: 640 mU mg^−1

Q: And the Growth [4]?
A: ++ (1 > OD > 0.5)

Q: And the “YMA/Aro, MA yield” value [5, 8]?
A: 0.99 ± 0.02 mol mol^−1

Q: What about the “YX/Glc, biomass yield” value [5, 8] of the same compound?
A: 0.38 ± 0.01 g/g

Q: What about the “qGlc, specific glucose uptake rate” value [5, 8] of the same compound?
A: 0.3 ± 0.0 mmol/g/h

Q: What about the “qMA, specific MA production rate” value [5, 8] of the same compound?
A: 0.2 ± 0.0 mmol/g/h

Q: And the “YMA/Aro, MA yield” value ([5]; LIMA-1, initial 20 mM benzoate, 10 mM catechol, 5 mM phenol, glucose added, listed as catechol)?
A: 1.00±0.01 mol mol^−1

Q: What about the “qGlc, specific glucose uptake rate” value [5, 9] of the same compound?
A: 0.7 ± 0.0 mmol/g/h

Q: And the “qMA, specific MA production rate” value [5, 9]?
A: 5.2 ± 0.4 mmol/g/h

Q: What about the “YMA/Aro, MA yield” value [6] of the same compound?
A: 1.00 ± 0.01 mol mol^−1

Q: What about the “YX/Glc, biomass yield” value [6] of the same compound?
A: 0.40 ± 0.02 g/g

Q: What about the “qGlc, specific glucose uptake rate” value [6] of the same compound?
A: 0.4 ± 0.0 mmol/g/h

Q: What about the “qMA, specific MA production rate” value [6] of the same compound?
A: 3.5 ± 0.1 mmol/g/h

Q: With O=C(O)/C=C\C=C/C(=O)O [Cis,cis-muconic acid, (2Z,4Z)-2,4-Hexadienedioate] as the compound, how does the Growth [4] read?
A: +++ (OD > 1)

Q: COc1ccccc1O [Guaiacol] was tested. Which specific growth rate ([7]; guaiacol as sole carbon source) did it give?
A: 0.30 h⁻¹

Q: What about the “concentrations utilized (tolerated) up to” value ([7]; guaiacol as sole source of carbon, 24 hours) of the same compound?
A: ≤ 25 mM

Q: And the Growth [4]?
A: ++ (1 > OD > 0.5)

Q: With Oc1ccccc1 [Phenol] as the compound, how does the Growth [4] read?
A: ++ (1 > OD > 0.5)

Q: And the “YMA/Aro, MA yield” value [5]?
A: 0.95 ± 0.09 mol mol^−1

Q: What about the “YX/Glc, biomass yield” value [5] of the same compound?
A: 0.48 ± 0.01 g/g

Q: What about the “qGlc, specific glucose uptake rate” value [5] of the same compound?
A: 0.6 ± 0.0 mmol/g/h

Q: What about the “qMA, specific MA production rate” value [5] of the same compound?
A: 0.1 ± 0.0 mmol/g/h

Q: With Cc1ccccc1 [Toluene] as the compound, how does the Growth [4] read?
A: + (0.5 > OD > 0.25)

Q: How did the Growth [4] turn out when O=C(O)/C=C/c1ccc(O)cc1 [p-Coumaric acid] was run?
A: +++ (OD > 1)
